Reference: the NIST ThermoML archive (doi:10.1016/j.jct.2012.11.017)

Test: xn = mol fraction of the nth substance listed
Details: Liquid, Vibrating tube method

CCCCCCCCCC [decane] + CCO
mass density [kg/m3]
Details	x2 = 0.25	x2 = 0.5	x2 = 0.75
303.2 K, 100 kPa	726.4	732.8	746.3
303.2 K, 1000 kPa	727.2	733.7	747.2
303.2 K, 2000 kPa	728	734.5	748.1
303.2 K, 3000 kPa	728.8	735.4	749
303.2 K, 4000 kPa	729.6	736.3	749.8
303.2 K, 5000 kPa	730.4	737.1	750.7
303.2 K, 6000 kPa	731.3	738	751.6
303.2 K, 7000 kPa	732.1	738.8	752.4
303.2 K, 8000 kPa	732.9	739.7	753.3
303.2 K, 9000 kPa	733.7	740.5	754.1
303.2 K, 10000 kPa	734.5	741.3	755
323.2 K, 100 kPa	709.6	715.8	728.5
323.2 K, 1000 kPa	710.3	716.7	729.5
323.2 K, 2000 kPa	711.2	717.7	730.6
323.2 K, 3000 kPa	712.2	718.6	731.5
323.2 K, 4000 kPa	713.1	719.6	732.6
323.2 K, 5000 kPa	714	720.5	733.5
323.2 K, 6000 kPa	714.9	721.5	734.5
323.2 K, 7000 kPa	715.8	722.4	735.4
323.2 K, 8000 kPa	716.8	723.3	736.4
323.2 K, 9000 kPa	717.7	724.2	737.4
323.2 K, 10000 kPa	718.6	725.2	738.4
